Test results as given in patent US11401278B2, “Macrocyclic indole derivatives” (The Broad Institute, Inc., priority 2017, dated 2022).
pIC50: −log10 of the molar value. Structures can show the parent of a compound that is named as a salt. Where two headings read alike, the source gives them in different places. One block for each compound: values may come before it.

What was measured:
[1] = amine bond, 60.0 °C
[2] = tested on: A2780; experiment: Antiproliferation assay (Assay 7), A2780; format: cell-based; conditions: CellTiter-Glo, several values per example
Description: (§1) Assessment of the Anti-Proliferative Effect of Compounds in Different Cell Lines
(§2) The impact of compounds on the proliferation of different cell lines was assessed using the CellTiter-Glo® Luminescent Cell Viability reagent from Promega (G7573).
(§3) In parallel, cells were plated in a reference (day 0) plate for time zero determination.
(§4) Rim wells were excluded. The cells were incubated for 72 hours in a humidified incubator at 37° C. The day 0 plate was measured by adding 30 μL/well of CTG solution (CellTiter-Glo® Luminescent Cell Viability reagent, Promega G7573) to time zero wells in the reference plate followed by a 10 minutes incubation and luminescence reading at 0.1 ms. using the PHERAstar FS microplate reader (BMG Labtech).
(§5) After 72 hours incubation, the treated plates were measured in the same way as the day 0 plate mentioned above.

[3] = tested on: MV-4-11; experiment: Antiproliferation assay (Assay 7), MV-4-11; format: cell-based; conditions: CellTiter-Glo, several values per example
Description: as §1, §2, §3, §4, §5

[4] = tested on: SUDHL5; experiment: Induction of caspase-3/7 activity (Assay 4), SUDHL5; format: cell-based; conditions: caspase-3/7 induction, median
Description: (§6) Cellular Assays Assay 4 Induction of Caspase-3/7 Activity Upon Treatment of Cells with Selected Compounds
(§7) The BH3-domain of MCL-1 sequesters pro-apoptotic proteins, thereby inhibiting apoptosis. In contrast, MCL-1 inhibitors are expected to antagonize this effect leading to an increase in apoptosis, which can be determined by measuring the activity of caspase-3/7.
(§8) The activity of caspase-3/7 was determined in DLBCL (Diffuse large B-cell lymphoma) cell lines (SUDHL5 and SUDHL10) upon treatment with different compounds, using the Caspase-Glo® 3/7 reagent from Promega (G8092).
(§9) Rim wells were excluded. The cells were incubated for 3 hours in a humidified incubator at 37° C.
(§10) For the evaluation of the results, the background measured with “medium-only” was subtracted from all other values. […] The Bella DRC Master Sheet was used to calculate EC50s, with fixed C0=1 and CI=plateau/max induction for the reference compound.

[5] = tested on: SUDHL5; experiment: Induction of cytotoxicity (Assay 6), SUDHL5; conditions: read-out: Cytotox SUDHL5 [M] (median) IC50, CellTiter-Glo, 5 hours, SUDHL5
[6] = target: MCL-1 (Homo sapiens (Human), UniProt Q07820, K194A/K197A/R201A); experiment: Protein-protein interaction assay MCL-1/Noxa BH3 peptide (MCL-1 assay, TR-FRET); format: binding; conditions: MBP-MCL-1 / Noxa BH3 peptide, median
Sequence of MCL-1 (Q07820 whole entry K194A/K197A/R201A, looked up): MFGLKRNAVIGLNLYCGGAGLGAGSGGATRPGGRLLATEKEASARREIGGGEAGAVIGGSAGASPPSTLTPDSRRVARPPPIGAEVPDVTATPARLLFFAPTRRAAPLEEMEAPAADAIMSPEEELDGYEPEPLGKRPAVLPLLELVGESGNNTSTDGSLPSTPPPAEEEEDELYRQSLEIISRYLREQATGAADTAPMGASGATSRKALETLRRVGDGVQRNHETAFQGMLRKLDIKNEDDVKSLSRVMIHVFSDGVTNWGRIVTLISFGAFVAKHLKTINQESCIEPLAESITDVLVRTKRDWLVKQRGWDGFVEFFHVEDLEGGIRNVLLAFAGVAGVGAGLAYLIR
Description: Protein-Protein Interaction Assay: MCL-1/Noxa BH3 Peptide (MCL-1 Assay)
The dose-dependent inhibition by the compounds described in this invention of the interaction between MCL-1 and the BH3 domain of Noxa (both human) was determined using a steady state binding competition assay with time-resolved fluorescence energy transfer (TR-FRET) readout. For that purpose MCL-1 (amino acids 173-329, N-terminal fused to Maltose Binding Protein (MBP) SEQ ID 1) and a synthetic Noxa BH3-derived peptide of sequence Biotin-PEG2-PEG2-PAELEVE-Nva-ATQLRRFGDKLNFRQKLL-amide (SEQ ID 2) served as protein receptor and tracer ligand respectively. The MBP-MCL-1 was purchased from Beryllium (Bedford, Mass., USA). The expression and purification of this protein construct has been described elsewhere (DOI:10.1371/journal.pone.0125010). The Noxa BH3-derived peptide can be obtained from e.g. Biosyntan (Berlin, Germany).
In the assay 11 different concentrations of each compound (0.1 nM, 0.33 nM, 1.1 nM, 3.8 nM, 13 nM, 44 nM, 0.15 μM, 0.51 μM, 1.7 μM, 5.9 μM and 20 μM) were typically measured as duplicates in the same microtiter plate. For that, 100-fold concentrated DMSO solutions were prepared by serial dilutions (1:3.4) of a 2 mM stock solution in a clear, 384-well microtiter plate (Greiner Bio-One, Frickenhausen, Germany). From there, 50 nl were transferred in a dark test plate (Greiner Bio-One, Frickenhausen, Germany). The assay was initiated by addition of 2 μl of a 2.5-fold concentrated MBP-MCL-1 solution (usually for a 1 nM end concentration in 5 μl reaction volume) in aqueous assay buffer [50 mM Tris/HCl pH 7, 100 mM sodium chloride (NaCl), 50 mM potassium fluoride (KF), 0.005% Tween-20, 2 mM DTT, 0.1% bovine gamma globulin (BGG)] to the compounds in the assay plate. This was followed by a 10-minute incubation step at 22° C. for pre-equilibration of the putative complex between MBP-MCL-1 and the compounds. After that, 3 μl of a 1.67-fold concentrated solution (in assay buffer) consisting of Noxa BH3-derived peptide (1 nM end concentration) and TR-FRET detection reagents [1.67 nM anti-MBP-Eu cryptate and 1.67 nM streptavidin-XL665 (both from Cisbio Bioassays, Codolet, France)], were added.
The mixture was incubated in the dark for one hour at 22° C. and then overnight at 4° C. The formation of MCL-1/Noxa complexes was determined by measuring the resonance energy transfer of the anti-MBP-Eu-cryptate antibody to the streptavidin-XL665 present in the reaction. For that purpose, the fluorescence emission at 620 nm and 665 nm after excitation at 330-350 nm was measured in a TR-FRET measuring instrument, for instance a Rubystar or a Pherastar (both from BMG Lab Technologies, Offenburg, Germany) or a Viewlux (Perkin-Elmer). The ratio of the emission at 665 nm and at 622 nm was used as indicator of the amount of MCL-1/NOXA complexes present.
The resulting data (ratio) were normalized, taking 0% inhibition as the mean value of control measurements (usually 32 data points) where all reagents were included. In this case 50 nl DMSO were used instead of compounds. A 100% inhibition corresponded to the mean value of control measurements (usually 32 data points) where all reagents except MCL-1 were included. IC50 values were determined by regression analysis based on a 4 parameter equation (minimum, maximum, IC50, Hill; Y=Max+(Min−Max)/(1+(X/IC50)^HiII) using the Screener Software (Genedata).

[7] = tested on: SUDHL10; experiment: Induction of cytotoxicity (Assay 6), SUDHL10; conditions: read-out: Cytotox SUDHL10 [M] (median) IC50, CellTiter-Glo, 5 hours, SUDHL10
[8] = tested on: SUDHL10; experiment: Induction of caspase-3/7 activity (Assay 4), SUDHL10; format: cell-based; conditions: caspase-3/7 induction, median
Description: as §6, §7, §8, §9, §10

[9] = tested on: SUDHL5; experiment: Antiproliferation assay (Assay 7), SUDHL5; format: cell-based; conditions: CellTiter-Glo, median, read-out: Antiproli SUDHL5 [M] (median) IC50
Description: as §1, §2, §3, §4, §5

[10] = tested on: HMC-1-8; experiment: Antiproliferation assay (Assay 7), HMC-1-8; format: cell-based; conditions: CellTiter-Glo, 72 hours, several values per example, read-out: Antiproli HMC-1-8 [M] IC50
Description: as §1, §2, §3, §4, §5

[11] = tested on: SUDHL5
[12] = tested on: AMO-1; experiment: Antiproliferation assay (Assay 7), AMO-1; format: cell-based; conditions: CellTiter-Glo, 72 hours, several values per example, read-out: Antiproli AMO-1 [M] IC50
Description: as §1, §2, §3, §4, §5

[13] = tested on: SUDHL10
[14] = Homo sapiens, A2780, 72 h, read-out: Antiproli A2780 [M] IC50
[15] = Homo sapiens, MV4-11, 72 h, read-out: Antiproli MV-4-11 [M] IC50

Compound: CCOC(=O)c1c(CCCOc2cccc3cc(F)ccc23)c2ccc(Cl)c3c2n1CCCS(=O)(=O)N(C)C(CCC1CCOCC1)c1nn(C)c(CC)c1-3 (racemic)
ring closure, yield of all isomers ([1]; from CCOC(=O)c1[nH]c2c(-c3c(C(CCC4CCOCC4)N(C)S(=O)(=O)CCCCl)nn(C)c3CC)c(Cl)ccc2c1CCCOc1cccc2cc(F)ccc12, cesium carbonate, acetonitrile, 34.4 mM, 48.0 h): 77%

Compound: CCOC(=O)c1c(CCCOc2cccc3cc(F)ccc23)c2ccc(Cl)c3c2n1CCCS(=O)(=O)N(C)C(CCN1CCOCC1)c1nn(C)c(CC)c1-3 (racemic)
ring closure, yield of all isomers ([1]; from CCOC(=O)c1[nH]c2c(-c3c(C(CCN4CCOCC4)N(C)S(=O)(=O)CCCCl)nn(C)c3CC)c(Cl)ccc2c1CCCOc1cccc2cc(F)ccc12, cesium carbonate, acetonitrile, 49.5 mM, 48.0 h): 44.9%

Compound: CCOC(=O)c1c(CCCOc2cccc3ccccc23)c2cccc3c2n1CCCS(=O)(=O)N(C)C(C)c1nn(C)c(CC)c1-3 (racemic)
ring closure, yield of all isomers ([1]; from CCOC(=O)c1[nH]c2c(-c3c(C(C)N(C)S(=O)(=O)CCCCl)nn(C)c3CC)cccc2c1CCCOc1cccc2ccccc12, Cs2CO3, MeCN, 50.0 mM, 18.0 h): 81.9%

IC50 ([2]; 72 hours, read-out: Antiproli A2780 [M] IC50): > 3.3e-05 M | IC50 [2, 14]: 1.68e-05 M | IC50 ([3]; 72 hours, read-out: Antiproli MV-4-11 [M] IC50): 1.28e-05 M | IC50 [3, 15]: 1.54e-05 M | EC50 ([4]; Homo sapiens, SU-DHL-5, 3 h): 3.1 µM | IC50 [6]: 0.0074 µM | EC50 ([8]; Homo sapiens, SU-DHL10, 3 h): 14 µM | IC50 ([9]; Homo sapiens, SU-DHL-5, 72 h): 3.8e-06 M
Compound: Cc1c2c(nn1C)CN(C)S(=O)(=O)CCCC1C(C(=O)O)=C(CCCOc3cccc4ccccc34)c3cccc-2c31 (racemic) [Example 10, (rac)-2,3,14-Trimethyl-7-[3-(1-naphthyloxy)propyl]-11,12,14,15-tetrahydro-2H,10H-pyrazolo[3′,4′:4,5][1,2,8]thiadiazacycloundecino[6,7,8-hi]indole-8-carboxylic acid 13,13-dioxide]
IC50 ([5]; Homo sapiens, SU-DHL-5, 5 h): 3.8e-06 M | IC50 ([7]; Homo sapiens, SU-DHL10, 5 h): 1.2e-05 M

Compound: CCc1c2c(nn1C)C(CCN1CCOCC1)N(C)S(=O)(=O)CCCn1c(C(=O)O)c(CCCOc3cccc4cc(F)ccc34)c3ccc(Cl)c-2c31 (racemic) [Example 74, (rac) 4-chloro-3-ethyl-7-{3-[(6-fluoronaphthalen-1-yl)oxy]propyl}-2,14-dimethyl-15-[2-(morpholin-4-yl)ethyl]-13,13-dioxo-10,11,12,13,14,15-hexahydro-2H-13lambda6-pyrazolo[3′,4′:4,5][1,2,8]thiadiazacycloundecino[6,7,8-hi]indole-8-carboxylic acid (Racemate 2)]
IC50 [10]: 3.2e-07 M | pIC50 [11]: 7.89 | IC50 [12]: 3.9e-08 M | pIC50 [13]: 7.77 | EC50 ([4]; 3 hours): 0.011 µM | IC50 [6]: 0.0011 µM | EC50 ([8]; 3 hours): 0.014 µM | IC50 ([9]; 72 hours): 9.9e-09 M

Compound: CCc1c2c(nn1C)C(CCN1CCOCC1)N(C)S(=O)(=O)CCCn1c(C(=O)O)c(CCCOc3cccc4cc(F)ccc34)c3ccc(Cl)c-2c31 (single isomer, unassigned) [Example 72, 4-chloro-3-ethyl-7-{3-[(6-fluoronaphthalen-1-yl)oxy]propyl}-2,14-dimethyl-15-[2-(morpholin-4-yl)ethyl]-13,13-dioxo-10,11,12,13,14,15-hexahydro-2H-13lambda6-pyrazolo[3′,4′:4,5][1,2,8]thiadiazacycloundecino[6,7,8-hi]indole-8-carboxylic acid (Mixture of Stereoisomers)]
pIC50 [11]: 8.06 | pIC50 [13]: 7.47 | EC50 ([4]; 3 hours): 0.015 µM | IC50 [6]: 0.0011 µM | EC50 ([8]; 3 hours): 0.027 µM

IC50 ([2]; 72 hours, listed as 02, read-out: Antiproli A2780 [M] IC50): > 3.3e-05 M | IC50 [2, 14]: 2.66e-05 M | IC50 ([3]; 72 hours, listed as 02, read-out: Antiproli MV-4-11 [M] IC50): 8.63e-06 M | IC50 [3, 15]: 1.17e-05 M | EC50 ([4]; 3 hours): 3.9 µM | IC50 [6]: 0.0034 µM | EC50 ([8]; 3 hours): 11 µM | IC50 ([9]; 72 hours): 4.4e-06 M
Compound: Cc1c2c(nn1C)CN(CCN1CCOCC1)S(=O)(=O)CCCn1c(C(=O)O)c(CCCOc3cccc4ccccc34)c3cccc-2c31 (single isomer, unassigned; enantiomer 1) [Example 2, 2,3-Dimethyl-14-[2-(morpholin-4-yl)ethyl]-7-{3-[(naphthalen-1-yl)oxy]propyl}-13,13-dioxo-10,11,12,13,14,15-hexahydro-2H-13λ^6-pyrazolo[3′,4′:4,5][1,2,8]thiadiazacycloundecino-[6,7,8-hi]indole-8-carboxylic acid-N-ethylethanamine salt (Enantiomer 1)]
IC50 [5]: 3.5e-06 M | IC50 [7]: 9.8e-06 M
